# Measured values: US8067447B2, “Modulators of glucocorticoid receptor, AP-1, and/or NF-κB activity and use thereof” (Bristol-Myers Squibb Company, priority 2006, dated 2011)
# Read-outs that look alike come from different tables or passages of the source.
# Columns and labels:
# [1] = test system: AP-1 induced transcriptional activity; assay: Cellular Transrepressional Assay (AP-1 luciferase reporter in A549 cells, PMA-activated); type: cell-based; settings: A549 cells with 7x AP-1 luciferase reporter, 10 ng/ml PMA, read-out: AP-1 (EC50, nM) (Cellular Transrepression Assay)
# Method: To measure the ability of test molecules to inhibit AP-1 induced transcriptional activity an A549 cell was utilized which was stably transfected with a plasmid containing 7× AP-1 DNA binding sites (pAP-1-Luc plasmid, Stratagene Co. La Jolla, Calif.) followed by the gene for luciferase. Cells were activated with 10 ng/ml of […] (PMA) plus or minus test molecules for 7 hours. After 7 hours a luciferase reagent was added to measure luciferase enzymatic activity in the cell. After a 10 minute incubation of luciferase reagent with cells, luminescence was measured in a TopCount luminescence counter. Repression of AP-1 activity was calculated as the percentage decrease in the signal induced by PMA alone. Test molecules were analyzed in the concentration range from 0.1 nM to 40 μM. EC50s were determined by using standard curve fitting methods such as Excel fit (Microsoft Co.).
# [2] = biological target: T1, human glucocorticoid receptor (Homo sapiens, UniProt P04150); assay: Glucocorticoid Receptor Binding Assay (I), fluorescence polarization competitor kit (Fluormone GS Red); settings: purified human recombinant full-length GR 2 nM, 1 nM Fluormone GS Red, FP; read-out: GR (Ki, nM) (GR Binding Assay (I))
# T1 construct: purified human recombinant full-length glucocorticoid receptor (2 nM); purchased Invitrogen Part #2893
# T1 sequence (P04150 1-777): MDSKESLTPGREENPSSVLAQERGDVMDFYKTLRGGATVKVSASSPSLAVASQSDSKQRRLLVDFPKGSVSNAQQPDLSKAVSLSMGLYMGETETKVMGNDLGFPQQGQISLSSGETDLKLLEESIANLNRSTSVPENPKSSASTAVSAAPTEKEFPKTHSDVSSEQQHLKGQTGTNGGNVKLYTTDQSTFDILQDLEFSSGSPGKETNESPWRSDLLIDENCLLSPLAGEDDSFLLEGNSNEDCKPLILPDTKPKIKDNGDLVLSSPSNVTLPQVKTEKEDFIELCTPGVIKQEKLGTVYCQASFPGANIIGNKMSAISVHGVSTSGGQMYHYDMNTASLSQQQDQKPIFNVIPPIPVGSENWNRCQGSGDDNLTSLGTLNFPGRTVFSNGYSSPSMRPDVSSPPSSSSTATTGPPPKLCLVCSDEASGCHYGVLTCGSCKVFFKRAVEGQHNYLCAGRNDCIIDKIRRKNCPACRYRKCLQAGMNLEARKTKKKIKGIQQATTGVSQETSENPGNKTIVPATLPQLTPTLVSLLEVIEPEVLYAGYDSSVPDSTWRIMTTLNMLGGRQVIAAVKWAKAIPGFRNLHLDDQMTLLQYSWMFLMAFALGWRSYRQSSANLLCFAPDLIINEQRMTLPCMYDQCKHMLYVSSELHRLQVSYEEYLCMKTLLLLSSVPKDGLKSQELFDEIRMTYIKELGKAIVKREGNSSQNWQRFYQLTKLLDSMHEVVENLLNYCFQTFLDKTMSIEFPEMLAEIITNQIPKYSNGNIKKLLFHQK
# Method: Briefly, purified human recombinant full-length glucocorticoid receptor (2 nM) was mixed with fluorescently labeled glucocorticoid (1 nM Fluormone GS Red) in the presence or absence of test compound. After two hour incubation at room temperature in the dark, the fluorescence polarization (FP) of the samples was measured. […] Test compounds were analyzed in the concentration range from 8.5E-05 μM to 5 μM.
Structure (SMILES),"EC50 ([1]; Homo sapiens, A549, 7 h)",Ki [2],EC50 ([1]; 7 hours)
"CC(C)(C(=O)Nc1nccs1)C(c1ccccc1)c1ccc2[nH]c(-c3ccccn3)cc2c1 (single isomer, unassigned) [111-enant A, 2,2-Dimethyl-3-phenyl-3-(2-(pyridin-2-yl)-1H-indol-5-yl)-N-(thiazol-2-yl)propanamide]",1090 nM,73 nM,–
"CC(C)(C(=O)Nc1nccs1)C(c1ccccc1)c1ccc2[nH]c(-c3ccccn3)cc2c1 (single isomer, unassigned) [111-enant B, 2,2-Dimethyl-3-phenyl-3-(2-(pyridin-2-yl)-1H-indol-5-yl)-N-(thiazol-2-yl)propanamide]",–,25 nM,777 nM
"O=C(CC(c1ccccc1)c1ccc2c(cnn2-c2ccc(F)cc2)c1)Nc1nncs1 (single isomer, unassigned) [136-enant A, 3-(1-(4-Fluorophenyl)-1H-indazol-5-yl)-3-phenyl-N-(1,3,4-thiadiazol-2-yl)propanamide]",–,23 nM,> 10000 nM
"O=C(CC(c1ccccc1)c1ccc2c(cnn2-c2ccc(F)cc2)c1)Nc1nncs1 (single isomer, unassigned) [136-enant B, 3-(1-(4-Fluorophenyl)-1H-indazol-5-yl)-3-phenyl-N-(1,3,4-thiadiazol-2-yl)propanamide]",–,6 nM,13 nM
"CC(C)(C(=O)NC1CCCC1)C(c1ccccc1)c1ccc2c(cnn2-c2ccc(F)cc2)c1 (stereo not drawn) [Example 3, N-cyclopentyl-3-(1-(4-fluorophenyl)-1H-indazol-5-yl)-2,2-dimethyl-3-phenylpropanamide]",199 nM,6.9 nM,–
"Cn1ccc(NC(=O)C(C)(C)C(c2ccccc2)c2ccc3c(cnn3-c3ccc(F)cc3)c2)n1 (stereo not drawn) [Example 4, 3-(1-(4-fluorophenyl)-1H-indazol-5-yl)-2,2-dimethyl-N-(1-methyl-1H-pyrazol-3-yl)-3-phenylpropanamide]",12 nM,7 nM,–
"CC(C)(C(=O)NS(C)(=O)=O)C(c1ccccc1)c1ccc2c(cnn2-c2ccc(F)cc2)c1 (stereo not drawn) [Example 5, 3-(1-(4-fluorophenyl)-1H-indazol-5-yl)-2,2-dimethyl-N-(methylsulfonyl)-3-phenylpropanamide]",1330 nM,7 nM,–
"CC(C)(C(=O)NS(=O)(=O)C(F)(F)F)C(c1ccccc1)c1ccc2c(cnn2-c2ccc(F)cc2)c1 (stereo not drawn) [Example 6, 3-(1-(4-fluorophenyl)-1H-indazol-5-yl)-2,2-dimethyl-3-phenyl-N-(trifluoromethylsulfonyl) propanamide]",> 10000 nM,77 nM,–
"CC(C)(C)CNC(=O)C(C)(C)C(c1ccccc1)c1ccc2c(cnn2-c2ccc(F)cc2)c1 (stereo not drawn) [Example 7, 3-(1-(4-fluorophenyl)-1H-indazol-5-yl)-2,2-dimethyl-N-neopentyl-3-phenylpropanamide]",904 nM,2.9 nM,–
"CC(C)(C(=O)NCC(F)(F)F)C(c1ccccc1)c1ccc2c(cnn2-c2ccc(F)cc2)c1 (stereo not drawn) [Example 8, 3-(1-(4-fluorophenyl)-1H-indazol-5-yl)-2,2-dimethyl-3-phenyl-N-(2,2,2-trifluoroethyl)prop-anamide]",1800 nM,3 nM,–
"CC(C)(C(=O)NCCC(F)(F)F)C(c1ccccc1)c1ccc2c(cnn2-c2ccc(F)cc2)c1 (stereo not drawn) [Example 9, 3-(1-(4-fluorophenyl)-1H-indazol-5-yl)-2,2-dimethyl-3-phenyl-N-(3,3,3-trifluoropropyl)-propanamide]",3060 nM,3.7 nM,–
"CCOC(=O)c1nnc(NC(=O)C(C)(C)C(c2ccccc2)c2ccc3c(cnn3-c3ccc(F)cc3)c2)s1 (stereo not drawn) [Example 10, ethyl 5-(3-(1-(4-fluorophenyl)-1H-indazol-5-yl)-2,2-dimethyl-3-phenylprop-anamido)-1,3,4-thiadiazole-2-carboxylate]",3520 nM,227 nM,–
"CC(C)(C(=O)Nc1ccsc1)C(c1ccccc1)c1ccc2c(cnn2-c2ccc(F)cc2)c1 (stereo not drawn) [Example 11, 3-(1-(4-fluorophenyl)-1H-indazol-5-yl)-2,2-dimethyl-3-phenyl-N-(thiophen-3-yl)propanamide]",73 nM,11 nM,–
"CC(C)(C(=O)Nc1nc[nH]n1)C(c1ccccc1)c1ccc2c(cnn2-c2ccc(F)cc2)c1 (stereo not drawn) [Example 13, 3-(1-(4-fluorophenyl)-1H-indazol-5-yl)-2,2-dimethyl-3-phenyl-N-(1H-1,2,4-triazol-3-yl)propanamide]",17 nM,11 nM,–
"CC(C)(C(=O)Nc1nnn[nH]1)C(c1ccccc1)c1ccc2c(cnn2-c2ccc(F)cc2)c1 (stereo not drawn) [Example 14, 3-(1-(4-fluorophenyl)-1H-indazol-5-yl)-2,2-dimethyl-3-phenyl-N-(1H-tetrazol-5-yl)propanamide]",> 10000 nM,17 nM,–
"CC(C)(C(=O)Nc1cc(O)[nH]n1)C(c1ccccc1)c1ccc2c(cnn2-c2ccc(F)cc2)c1 (stereo not drawn) [Example 15, 3-(1-(4-fluorophenyl)-1H-indazol-5-yl)-N-(5-hydroxy-1H-pyrazol-3-yl)-2,2-dimethyl-3-phenylpropanamide]",> 10000 nM,318 nM,–

# Results, then the compound that gave them:
"EC50 ([1]; Homo sapiens, A549, 7 h)",Ki [2],EC50 ([1]; 7 hours),Structure (SMILES)
–,–,0.23 nM,"CC(C(=O)Nc1nncs1)C(c1ccccc1)c1ccc2c(cnn2-c2ccc(F)cc2)c1 (single isomer, unassigned) [Example 141-isomerC, 3-(1-(4-Fluorophenyl)-1H-indazol-5-yl)-2-methyl-3-phenyl-N-(1,3,4-thiadiazol-2-yl)propanamide]"
> 10000 nM,163 nM,–,"CC(C)(C(=O)Nc1n[nH]cc1C#N)C(c1ccccc1)c1ccc2c(cnn2-c2ccc(F)cc2)c1 (stereo not drawn) [Example 16, N-(4-cyano-1H-pyrazol-3-yl)-3-(1-(4-fluorophenyl)-1H-indazol-5-yl)-2,2-dimethyl-3-phenylpropanamide]"
49 nM,11 nM,–,"Cc1cnc(NC(=O)C(C)(C)C(c2ccccc2)c2ccc3c(cnn3-c3ccc(F)cc3)c2)s1 (stereo not drawn) [Example 17, 3-(1-(4-fluorophenyl)-1H-indazol-5-yl)-2,2-dimethyl-N-(5-methylthiazol-2-yl)-3-phenylpropanamide]"
141 nM,21 nM,–,"Cc1nnc(NC(=O)C(C)(C)C(c2ccccc2)c2ccc3c(cnn3-c3ccc(F)cc3)c2)s1 (stereo not drawn) [Example 18, 3-(1-(4-fluorophenyl)-1H-indazol-5-yl)-2,2-dimethyl-N-(5-methyl-1,3,4-thiadiazol-2-yl)-3-phenylpropanamide]"
> 10000 nM,47 nM,–,"CC(C)(C(=O)Nc1sccc1C#N)C(c1ccccc1)c1ccc2c(cnn2-c2ccc(F)cc2)c1 (stereo not drawn) [Example 19, N-(3-cyanothiophen-2-yl)-3-(1-(4-fluorophenyl)-1H-indazol-5-yl)-2,2-dimethyl-3-phenylpropanamide]"
> 10000 nM,10 nM,–,"CCc1nnc(NC(=O)C(C)(C)C(c2ccccc2)c2ccc3c(cnn3-c3ccc(F)cc3)c2)s1 (stereo not drawn) [Example 20, N-(5-ethyl-1,3,4-thiadiazol-2-yl)-3-(1-(4-fluorophenyl)-1H-indazol-5-yl)-2,2-dimethyl-3-phenylpropanamide]"
155 nM,12 nM,–,"CC(C)(C(=O)Nc1nnc(C2CC2)s1)C(c1ccccc1)c1ccc2c(cnn2-c2ccc(F)cc2)c1 (stereo not drawn) [Example 21, N-(5-cyclopropyl-1,3,4-thiadiazol-2-yl)-3-(1-(4-fluorophenyl)-1H-indazole-5-yl)-2,2-dimethyl-3-phenylpropanamide]"
840 nM,29 nM,–,"CSc1nnc(NC(=O)C(C)(C)C(c2ccccc2)c2ccc3c(cnn3-c3ccc(F)cc3)c2)s1 (stereo not drawn) [Example 22, 3-(1-(4-fluorophenyl)-1H-indazol-5-yl)-2,2-dimethyl-N-(5-(methylthio)-1,3,4-thiadiazol-2-yl)-3-phenylpropanamide]"
–,–,> 10000 nM,"O=C(Nc1nccs1)C1CC1(c1ccccc1)c1ccc2c(cnn2-c2ccc(F)cc2)c1 (stereo not drawn) [Example 99, Cis-2-(1-(4-fluorophenyl)-1H-indazol-5-yl)-2-phenyl-N-(thiazol-2-yl)cyclopropanecarboxamide]"
